Like-named read-outs stand apart in the source and are kept apart here. One block for each molecule: values may come before it.
What was measured:
[1] = Pharmacokinetic study of 5 compounds in rat plasma after oral administration of Zuogui Pill extract (HPLC-MS/MS, noncompartmental analysis); format: in vivo, Female Sprague-Dawley rats; conditions: oral Zuogui Pill extract 1.5 mL/100 g; for Cmax / Tmax / half-life / CL/F / MRT last / MRT inf: female, Sprague-Dawley, rat, po, 1.5 mL/100 g; for Cmax / Tmax / half-life / AUC0–t / AUC0–∞: n = 6; for CL/F: n = 6, read-out: CL_F_obs (converted); for MRT last: n = 6, read-out: MRT0–t; for MRT inf: n = 6, read-out: MRT0–∞
Procedure: Female Sprague-Dawley rats (180–220 g) were purchased from Shanghai Laboratory Animal Centre (Shanghai, China). The rats were maintained in a standard environment (22 ± 1°C, 60 ± 10% relative humidity, and a 12 h light/dark cycle) for one week to acclimate and fed water and food ad libitum. Twenty-four rats were divided randomly into […] and treated through ovary enucleation to establish the model of osteoporosis. Ten weeks after operation, osteoporosis models of kidney-yang-deficiency and kidney-yin-deficiency were established by intramuscular injection of hydrocortisone (25 mg/kg) and intragastric administration of thyroxine suspension (160 mg/kg) for 10 days, respectively. The femur of two rats from each group was then stained with hematoxylin and eosin (H&E) to assess histopathological change. Also, the validation of osteoporosis kidney-yang-deficiency and kidney-yin-deficiency models was judged by detecting the level of cyclic adenosine monophosphate (cAMP) and cyclic guanosine monophosphate (cGMP) in rat plasma. Laboratory Animal Management and Ethics Committee of Zhejiang Chinese Medical University approved all animal treatments (ZSLL-2014-48).
One hundred microliters of plasma was mixed with 100 μL of the IS solution, followed by 700 μL of methanol:acetonitrile (1 : 1). After 2 min of vortex mixing, the mixture was spun for 15 min at 8000 rpm and 4°C. The supernatants were collected and dried in a high-purity N2 environment. The residues were redissolved in 100 μL methanol and centrifuged for 15 min at 13000 rpm and 4°C. Finally, an aliquot of 10 μL supernatants was used to conduct the analysis.
Four groups of rats were orally administered with Zuogui Pill extract at a dose of 1.5 mL/100 g. Then, 0.3 mL blood samples were collected from orbital veins at 0, 0.08, 0.17, 0.25, 0.5, 1, 2, 4, 6, 8, 12, and 24 h after administration, placed in an anticoagulant tube, and centrifuged for 15 min at 5000 rpm and 4°C. The plasma was prepared and stored at −20°C until analysis.
Phoenix WinNonlin 6.4 software was used to estimate pharmacokinetic parameters using noncompartmental analysis. Furthermore, SPSS 26 software was used to compute comparisons of the pharmacokinetic data among the four groups according to a one-way ANOVA. The results are presented as mean ± SD.

[2] = Stability of analytes in rat plasma (QC samples) under storage conditions; conditions: n = 5; for Stability, Room temperature for 4 h, Mean: 25°C; for Stability, Three freeze-thaw cycles, Mean: −20°C to 25°C
Procedure: QC samples at three levels using five replicates were used to evaluate the stability under the following conditions: 4 h at room temperature (25°C), 24 h in autosampler (4°C), and three freeze-thaw cycles (−20°C to 25°C).

[3] = osteoporosis rats (ovariectomized)
[4] = osteoporotic rats with kidney-yang-deficiency
[5] = osteoporotic rats with kidney-yin-deficiency
[6] = high QC (800, 16000, 3200, 400, 40 ng/mL in the same order)
[7] = low QC (2, 40, 8, 1, 0.1 ng/mL for chlorogenic acid, loganin, morroniside, aucubin, protocatechuic aldehyde)
[8] = middle QC (40, 800, 160, 20, 2 ng/mL in the same order)

Cmax ([1]; normal rats): 1720 ± 410 ng/mL
Tmax ([1]; normal rats): 0.29 ± 0.1 h
half-life ([1]; normal rats): 3.66 ± 1.18 h
CL/F ([1]; normal rats): 49.4 mL/min/kg
MRT last ([1]; normal rats): 3.41 ± 0.33 h
MRT inf ([1]; normal rats): 3.66 ± 0.48 h
Cmax [1, 3]: 1110 ± 163 ng/mL
Tmax [1, 3]: 0.26 ± 0.02 h
half-life [1, 3]: 2.4 ± 0.51 h
CL/F [1, 3]: 59.2 mL/min/kg
MRT last [1, 3]: 4.37 ± 0.43 h
MRT inf [1, 3]: 4.51 ± 0.38 h
Cmax [1, 4]: 1450 ± 337 ng/mL
Tmax [1, 4]: 0.19 ± 0.04 h
half-life [1, 4]: 3.83 ± 0.64 h
CL/F [1, 4]: 59.4 mL/min/kg
MRT last [1, 4]: 4.68 ± 0.24 h
MRT inf [1, 4]: 5.03 ± 0.33 h
Cmax [1, 5]: 1750 ± 321 ng/mL
Tmax [1, 5]: 0.24 ± 0.03 h
half-life [1, 5]: 2.9 ± 0.65 h
CL/F [1, 5]: 28.3 mL/min/kg
MRT last [1, 5]: 5.08 ± 0.74 h
MRT inf [1, 5]: 5.21 ± 0.78 h
AUC0–t ([1]; normal rats): 2151.00 ± 498.88 h∗ng/mL
AUC0–∞ ([1]; normal rats): 2171.33 ± 509.45 h∗ng/mL
AUC0–t [1, 3]: 1724.77 ± 149.05 h∗ng/mL
AUC0–∞ [1, 3]: 1741.55 ± 136.08 h∗ng/mL
AUC0–t [1, 4]: 1726.42 ± 217.11 h∗ng/mL
AUC0–∞ [1, 4]: 1750.35 ± 215.20 h∗ng/mL
AUC0–t [1, 5]: 3764.53 ± 842.38^∗∗ h∗ng/mL
AUC0–∞ [1, 5]: 3782.41 ± 832.52^∗∗ h∗ng/mL
Stability, Room temperature for 4 h, Mean [2, 6]: 98.3%
Stability, Room temperature for 4 h, Mean [2, 7]: 90.8%
Stability, Room temperature for 4 h, Mean [2, 8]: 86.1%
Stability, Autosampler at 4°C for 24 h, Mean [2, 6]: 95.0%
Stability, Autosampler at 4°C for 24 h, Mean [2, 7]: 89.6%
Stability, Autosampler at 4°C for 24 h, Mean [2, 8]: 87.6%
Stability, Three freeze-thaw cycles, Mean [2, 6]: 89.8%
Stability, Three freeze-thaw cycles, Mean [2, 7]: 93.0%
Stability, Three freeze-thaw cycles, Mean [2, 8]: 91.5%
Compound: COC(=O)C1=CO[C@@H](O[C@@H]2O[C@H](CO)[C@@H](O)[C@H](O)[C@H]2O)[C@@H]2[C@H](C)O[C@@H](O)C[C@H]12 [Morroniside, morroniside]

Compound: O=Cc1ccc(O)c(O)c1 [Protocatechuic aldehyde, protocatechuic aldehyde]
Cmax ([1]; normal rats): 18.9 ± 3.62 ng/mL
Tmax ([1]; normal rats): 0.45 ± 0.1 h
half-life ([1]; normal rats): 10.9 ± 4.48 h
CL/F ([1]; normal rats): 12.5 mL/min/kg
MRT last ([1]; normal rats): 5.14 ± 0.17 h
MRT inf ([1]; normal rats): 15.8 ± 6.12 h
Cmax [1, 3]: 10.1 ± 1.99 ng/mL
Tmax [1, 3]: 0.3 h
half-life [1, 3]: 12 ± 4.69 h
CL/F [1, 3]: 21.3 mL/min/kg
MRT last [1, 3]: 5.52 ± 0.21 h
MRT inf [1, 3]: 17.8 ± 6.26 h
Cmax [1, 4]: 11.4 ± 1.31 ng/mL
half-life [1, 4]: 2.09 ± 0.89 h
CL/F [1, 4]: 50.5 mL/min/kg
MRT last [1, 4]: 2.55 ± 0.18 h
MRT inf [1, 4]: 3.5 ± 1.38 h
Cmax [1, 5]: 8.81 ± 1.61 ng/mL
Tmax [1, 5]: 0.17 ± 0.07 h
half-life [1, 5]: 2.2 ± 0.83 h
CL/F [1, 5]: 48.9 mL/min/kg
MRT last [1, 5]: 3.24 ± 0.37 h
MRT inf [1, 5]: 3.79 ± 0.79 h
AUC0–t ([1]; normal rats): 64.15 ± 10.30^∗∗ h∗ng/mL
AUC0–∞ ([1]; normal rats): 119.88 ± 32.93^∗∗ h∗ng/mL
AUC0–t [1, 3]: 34.92 ± 2.37 h∗ng/mL
AUC0–∞ [1, 3]: 72.28 ± 21.64 h∗ng/mL
AUC0–t [1, 4]: 24.70 ± 1.69^∗∗ h∗ng/mL
AUC0–∞ [1, 4]: 28.68 ± 6.49^∗∗ h∗ng/mL
AUC0–t [1, 5]: 27.48 ± 3.10^∗∗ h∗ng/mL
AUC0–∞ [1, 5]: 28.87 ± 2.69^∗∗ h∗ng/mL
Stability, Room temperature for 4 h, Mean [2, 6]: 87.4%
Stability, Room temperature for 4 h, Mean [2, 7]: 86.8%
Stability, Room temperature for 4 h, Mean [2, 8]: 90.9%
Stability, Autosampler at 4°C for 24 h, Mean [2, 6]: 85.9%
Stability, Autosampler at 4°C for 24 h, Mean [2, 7]: 88.4%
Stability, Autosampler at 4°C for 24 h, Mean [2, 8]: 89.3%
Stability, Three freeze-thaw cycles, Mean [2, 6]: 89.5%
Stability, Three freeze-thaw cycles, Mean [2, 7]: 90.8%
Stability, Three freeze-thaw cycles, Mean [2, 8]: 83.4%

— publication PMC10045483, “Comparative Pharmacokinetic Study of 5 Active Ingredients after Oral Administration of Zuogui Pill in Osteoporotic Rats with Different Syndrome Types” (International Journal of Analytical Chemistry, 2023)
